Entries after “also recorded” stand apart in the source; their conditions may differ. Read-outs that look alike come from different tables or passages of the source.
Experiments:
786-O (renal carcinoma) = assay: 72-hour IC50 determination for adherent cells using sulforhodamine B (SRB); format: cell-based, human; details: error is standard deviation of the mean, n ≧ 3, read-out: 786-O, 72-hour IC50 (Table E1-2)
Procedure: (§1) Certain provided compounds were tested in culture against a panel of three supplementary human cancer cell lines representing three additional tumor histologies (H460, lung carcinoma; 786-O, renal carcinoma; MCF-7, breast carcinoma). As shown in Table E1-2, the ETPs retain their potency across the cell lines. In some embodiments, a provided compound is active in all cell lines. In some embodiments, a provide compound can be used to selectively target certain cells and/or cancers. […] Without the intention to be limited, Applicant notes that certain cell lines could be more sensitive to provided compounds; for example, U-937 and HeLa are slightly more sensitive to the ETPs than the other three cell lines.
(§2) Cells were grown in media supplemented with fetal bovine serum (FBS) and antibiotics ([…]). Specifically, experiments were performed using the following cell lines and media compositions: U-937, HeLa, H460, and 786-O (RPMI-1640+10% FBS), and MCF7 (EMEM+10% FBS). Cells were incubated at 37° C. in a 5% CO2, 95% humidity atmosphere.
(§3) Adherent cells (HeLa, H460, 786-O, and MCF7) were added into 96-well plates (5,000 cells/well for HeLa cell line; 2,000 cells/well for H460, 786-O, and MCF7 cell lines) in 100 μL media and were allowed to adhere for 2-3 hours. Compounds were solubilized in DMSO as 100× stocks, added directly to the cells (100 μL final volume), and tested over a range of concentrations in triplicate (1% DMSO final) on a half-log scale. Concentrations tested ranged from […] to 10 μM, depending on the potency of the compound. DMSO and cell-free wells served as the live and dead control, respectively. After 72 hours of continuous exposure, the plates were evaluated using the SRB colorimetric assay as described previously (Vichai, V.; Kirtikara, K. Nature Prot. 2006, 1, 1112). Briefly, media was removed from the plate, and cells were fixed by the addition of 100 μL cold 10% trichloroacetic acid in water. After incubating at 4° C. for an hour, the plates were washed in water and allowed to dry. Sulforhodamine B was added as a 0.057% solution in 1% acetic acid (100 μL), and the plates were incubated at room temperature for 30 minutes, washed in 1% acetic acid, and allowed to dry. The dye was solubilized by adding 10 mM Tris base solution (pH 10.5, 200 μL) and incubating at room temperature for 30 minutes. Plates were read at λ=510 nm. IC50 values were determined from three or more independent experiments using TableCurve (San Jose, Calif.).

H460 (lung carcinoma) = assay: as above; format: cell-based, human; details: error is standard deviation of the mean, n ≧ 3, read-out: H460, 72-hour IC50 (Table E1-2)
Procedure: as §1, §2, §3

MCF-7 (breast carcinoma) = assay: as above; format: cell-based, human; details: error is standard deviation of the mean, n ≧ 3, read-out: MCF-7, 72-hour IC50 (Table E1-2)
Procedure: as §1, §2, §3

[1] = system: U-937 (hystiocytic lymphoma); assay: 72-hour IC50 determination for non-adherent cells using MTS; format: cell-based, human; details: 72-hour exposure
In short: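 U-937 cells (5,000/well) in RPMI-1640 + 10% FBS were exposed to compounds in triplicate (1% DMSO final) for 72 h at 37 °C. Viability was read by PMS/MTS absorbance at 490 nm, with DMSO wells as live and cell-free wells as dead controls. IC50 came from three or more independent experiments.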

human cancer cell lines = assay: Anticancer activity in human cancer cell lines, not tied to one cell line; format: cell-based; details: for anticancer activity, in words: human cancer cell lines, 72-hour exposure
In short: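 Cells exposed 72 h to compound on a half-log scale (1% DMSO final); adherent lines (HeLa, H460, 786-O, MCF7) read by SRB staining at 510 nm, U-937 by MTS/PMS absorbance at 490 nm. IC50 from three or more independent experiments.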

U-937 cells = assay: Apoptosis in U-937 cells with Annexin V-FITC and propidium iodide (AnnV/PI), flow cytometry; format: cell-based, human; details: 24 hours, compounds at 100-times their 72-hour IC50
Procedure: DMSO stocks of compounds were added to a 24-well plate in singlicate (0.2% DMSO final). After compound addition, 0.5 mL of a U-937 cell suspension (250,000 cells/mL) was added and allowed to incubate for 24 hours. Following treatment, the cell suspensions were transferred to flow cytometry tubes and pelleted (500 g, 3 min). The media was removed by aspiration, and cells were re-suspended in 200 μL AnnV binding buffer (10 mM HEPES, pH 7.4, 140 mM NaCl, 2.5 mM CaCl2) with 5 μg/mL PI and 1:90 dilution of AnnV. Samples were analyzed using flow cytometry.

[2] = system: HeLa (cervical carcinoma); assay: 72-hour IC50 determination for adherent cells using sulforhodamine B (SRB); format: cell-based, human; details: 72-hour exposure
In short: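 HeLa cells were seeded at 5,000 cells/well in RPMI-1640 with 10% FBS and exposed continuously for 72 hours to compounds on a half-log scale (1% DMSO final, triplicate). Cells were then TCA-fixed, stained with sulforhodamine B and read at 510 nm. IC50 values came from three or more independent experiments.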

[3] = Solubility observed on isolation; details: in CH2Cl2, CHCl3, EtOAc, MeOH, DMSO
[4] = Stability observed on isolation (concentration / solution); details: observed during isolation and characterization
[5] = MTS, error is standard deviation of the mean, n ≧ 3, read-out: U-937, 72-hour IC50 (Table E1-1)
[6] = MTS, error is standard deviation of the mean, n ≧ 3, read-out: U-937, 72-hour IC50 (Table E1-2)
[7] = SRB, error is standard deviation of the mean, n ≧ 3, read-out: HeLa, 72-hour IC50 (Table E1-1)
[8] = SRB, error is standard deviation of the mean, n ≧ 3, read-out: HeLa, 72-hour IC50 (Table E1-2)
[9] = Homo sapiens, U-937, MTS, error is standard deviation of the mean, n ≧ 3, read-out: U-937, 72-hour IC50 (Table E1-1)
[10] = Homo sapiens, HeLa, SRB, error is standard deviation of the mean, n ≧ 3, read-out: HeLa, 72-hour IC50 (Table E1-1)

Row | Compound | IC50 (786-O (renal carcinoma); 72-hour exposure) [nM] | IC50 (H460 (lung carcinoma); 72-hour exposure) [nM] | IC50 (MCF-7 (breast carcinoma); 72-hour exposure) [nM] | IC50 [1, 5] [nM] | IC50 [1, 6] [nM] | anticancer activity, in words (human cancer cell lines) | induction of apoptosis (phosphatidylserine exposure / propidium iodide inclusion) (U-937 cells) | IC50 [2, 7] [nM] | IC50 [2, 8] [nM] | IC50 [1, 9] [nM] | IC50 [2, 10] [nM] | further results
1 | CN1C(=O)[C@@]23C[C@]4([C@]56C[C@@]78SSS[C@@](CO)(C(=O)N7[C@H]5Nc5ccccc56)N(C)C8=O)c5ccccc5N[C@@H]4N2C(=O)[C@]1(CO)SSS3 [Compound 5, (+)-chaetocin C] | 14.6 ± 0.8 | 26 ± 9.3 | 27 ± 11 | 0.75 ± 0.13 | 0.75 ± 0.13 | active across the board | induce caspase-dependent apoptotic cell death; also recorded: induce apoptosis | 6.3 ± 0.6 | 6.3 ± 0.6 |  |  | 
2 | CN1C(=O)[C@@]23C[C@]4(c5c[nH]c6ccccc56)c5ccccc5N(S(=O)(=O)c5ccccc5)[C@@H]4N2C(=O)[C@@H]1S3 [Compound 25, C3-(Indol-3′-yl)epimonothiodiketopiperazine] |  |  |  |  |  |  |  |  |  | 710 ± 134 | 1480 ± 182 | solubility [3]: Limited solubility
3 | CN1C(=O)C23CC4(c5c[nH]c6ccccc56)c5ccccc5N(S(=O)(=O)c5ccccc5)C4N2C(=O)C1SS3 (centres unmarked) [Compound 26, C3-(Indol-3′-yl) epidithiodiketopiperazine] | 62.7 ± 7.6 | 66 ± 19 | 67 ± 19 | 2.8 ± 0.3 | 2.8 ± 0.3 |  | induce caspase-dependent apoptotic cell death; also recorded: induce apoptosis | 41.7 ± 5.7 | 41.7 ± 5.7 |  |  | 
4 | CN1C(=O)[C@@]23C[C@]4([C@]56C[C@@]78SS[C@@](C)(C(=O)N7[C@H]5N(S(=O)(=O)c5ccccc5)c5ccccc56)N(C)C8=O)c5ccccc5N(S(=O)(=O)c5ccccc5)[C@@H]4N2C(=O)[C@]1(C)SS3 [Compound 14, Dimeric epidithiodiketopiperazine] | 1.55 ± 0.77 | 1.53 ± 0.85 | 1.65 ± 0.51 | 0.18 ± 0.06 | 0.18 ± 0.06 | active across the board | induce caspase-dependent apoptotic cell death; also recorded: induce apoptosis | 0.09 ± 0.06 | 0.09 ± 0.06 |  |  | IC50 ([1]; read-out: IC50 (U-937)): 0.18 nM; potency relative to (+)-12,12′-dideoxyverticillin A (3) (human cancer cell lines; more potent than the corresponding secondary aniline 3): 2 orders of magnitude; IC50 ([2]; read-out: IC50 (HeLa)): 0.09 nM
5 | CN1C(=O)C23CC4(c5c[nH]c6ccccc56)c5ccccc5N(S(=O)(=O)c5ccccc5)[C@@H]4N2C(=O)[C@H]1SC(=S)S3 (some centres unmarked) [Compound 36, C3-(Indol-3′-yl)dithiepanethione] |  |  |  |  |  | competent anticancer agents |  |  |  | 3.8 ± 0.9 | 33 ± 13 | IC50 (786-O (renal carcinoma); Homo sapiens, 786-0, 72-hour exposure): 133 ± 10 nM; IC50 (H460 (lung carcinoma); Homo sapiens, NCI-H460, 72-hour exposure): 190 ± 61 nM; IC50 (MCF-7 (breast carcinoma); Homo sapiens, MCF7, 72-hour exposure): 163 ± 7 nM; IC50 ([1]; Homo sapiens, U-937, MTS, error is standard deviation of the mean, n ≧ 3, read-out: U-937, 72-hour IC50 (Table E1-2)): 3.8 ± 0.9 nM; stability upon concentration or in solution [4]: tends to degrade; IC50 ([2]; Homo sapiens, HeLa, SRB, error is standard deviation of the mean, n ≧ 3, read-out: HeLa, 72-hour IC50 (Table E1-2)): 33 ± 13 nM
